Assay results: patent US20090088432A1, “Thiazolinones and Oxazolinones and their Use as Ptp1b Inhibitors” (priority 2005, published 2009)
Where a name gives a salt, the structure may show the parent alone.

Target: T1, Recombinant human Protein-tyrosine phosphatase1B (PTP1B) (Homo sapiens, UniProt P18031)
T1 construct: Recombinant human Protein-tyrosine phosphatase1B (PTP1B) (amino acid 1-322 Biomol, USA); purchased Biomol, USA
T1 sequence (P18031 1-322): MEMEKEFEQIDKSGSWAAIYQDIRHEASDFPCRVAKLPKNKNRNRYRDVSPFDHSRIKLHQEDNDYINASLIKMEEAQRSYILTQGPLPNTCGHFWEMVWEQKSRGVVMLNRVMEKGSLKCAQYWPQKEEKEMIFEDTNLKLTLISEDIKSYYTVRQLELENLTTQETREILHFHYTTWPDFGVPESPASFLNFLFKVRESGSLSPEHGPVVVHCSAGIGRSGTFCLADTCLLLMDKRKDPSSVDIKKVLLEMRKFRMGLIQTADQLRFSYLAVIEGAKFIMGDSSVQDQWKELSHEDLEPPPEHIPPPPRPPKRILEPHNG
Assay: PTP1B enzyme inhibition assay (pNpp substrate)
Type: biochemical
Details: inhibition of recombinant human PTP1B, pNpp 5 mM, 30 mins at 25° C; inhibitor concentration not given
Summary of the method: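 Recombinant human PTP1B (0.016 μg/well) preincubated with compound 30 min at 25 °C in 50 mM HEPES pH 7.4, 1 mM EDTA, 1 mM DTT, 0.05% Igepal, 1% DMSO final. Reaction started with 5 mM pNpp, run 30 min at 25 °C; p-nitrophenol read at 410 nm.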

| Activity Score | Compound |
| --- | --- |
| (+++) (+++ = >50% inhibition) | Cc1ccc(S(=O)(=O)NC(=O)Cc2ccc(NC3=NC(=O)C(=Cc4ccc(-c5ccc(F)cc5)cc4)S3)cc2)cc1 [Compound 215, N-(2-{4-[5-(4′-Fluoro-biphenyl-4-ylmethylene)-4-oxo-4,5-dihydro-thiazol-2-ylamino]-phenyl}-acetyl)-4-methyl-benzenesulfonamide sodium salt] |
| (+++) (+++ = >50% inhibition) | O=C(Cc1ccc(NC2=NC(=O)C(=Cc3ccc(-c4ccccc4)cc3)S2)cc1)NS(=O)(=O)c1ccc(C(F)(F)F)cc1.[Na] [Compound 219, N-{2-[4-(5-Biphenyl-4-ylmethylene-4-oxo-4,5-dihydro-thiazol-2-ylamino)-phenyl]-acetyl}-4-trifluoromethyl-benzenesulfonamide, sodium salt] |
| (++) (++ = 20-50% inhibition) | O=C(Cc1ccc(NC2=NC(=O)C(=Cc3ccc(-c4ccccc4)cc3)S2)cc1)NS(=O)(=O)c1cccs1.[Na] [Compound 223, Thiophene-2-sulfonic acid {2-[4-(5-biphenyl-4-ylmethylene-4-oxo-4,5-dihydro-thiazol-2-ylamino)-phenyl]-acetyl}-amide, sodium salt] |
| (++) (++ = 20-50% inhibition) | O=C(Cc1ccc(NC2=NC(=O)C(=Cc3ccc(-c4ccccc4)cc3)S2)cc1)NS(=O)(=O)c1ccc(F)cc1.[Na] [Compound 224, N-{2-[4-(5-Biphenyl-4-ylmethylene-4-oxo-4,5-dihydro-thiazol-2-ylamino)-phenyl]-acetyl}-4-fluoro-benzenesulfonamide, sodium salt] |
| (+) (+ = 10-20% inhibition) | CS(=O)(=O)NC(=O)Cc1ccc(NC2=NC(=O)C(=Cc3ccc(-c4ccccc4)cc3)S2)cc1.[Na] [Compound 225, N-{2-[4-(5-Biphenyl-4-ylmethylene-4-oxo-4,5-dihydro-thiazol-2-ylamino)-phenyl]-acetyl}-methanesulfonamide, sodium salt] |
| (+++) (+++ = >50% inhibition) | COc1ccc(S(=O)(=O)NC(=O)Cc2ccc(NC3=NC(=O)C(=Cc4ccc(-c5ccccc5)cc4)S3)cc2)cc1.[Na] [Compound 226, N-{2-[4-(5-Biphenyl-4-ylmethylene-4-oxo-4,5-dihydro-thiazol-2-ylamino)-phenyl]-acetyl}-4-methoxy-benzenesulfonamide, sodium salt] |
| (+) (+ = 10-20% inhibition) | CSc1ccc(-c2ccc(C=C3SC(Nc4ccc(CC(=O)NS(=O)(=O)c5ccc(C(F)(F)F)cc5)cc4)=NC3=O)c(F)c2)cc1.[Na] [Compound 239, N-(2-{4-[5-(3-Fluoro-4′-methylsulfanyl-biphenyl-4-ylmethylene)-4-oxo-4,5-dihydro-thiazol-2-ylamino]-phenyl}-acetyl)-4-trifluoromethyl-benzenesulfonamide sodium salt] |
| (+++) (+++ = >50% inhibition) | N#Cc1ccc(-c2ccc(C=C3SC(Nc4ccc(CC(=O)O)cc4)=NC3=O)cc2)cc1 [Compound 243, {4-[5-(4′-Cyano-biphenyl-4-ylmethylene)-4-oxo-4,5-dihydro-thiazol-2-ylamino]-phenyl}-acetic acid] |
| (+++) (+++ = >50% inhibition) | (4-{2-[5-(3-Benzyloxy-naphthalen-2-ylmethylene)-4-oxo-4,5-dihydro-thiazol-2-ylamino]-acetyl amino}-phenyl)-acetic acid [Compound 22] |
| (+) (+ = 10-20% inhibition) | (4-{5-[3-(3-Methoxy-benzyloxy)-naphthalen-2-ylmethylene]-4-oxo-4-4,5-dihydro-thiazol-2-ylamino}-phenyl)-sodium acetate [Compound 181] |
| (+++) (+++ = >50% inhibition) | [4-(N′-{4-Oxo-5-[4-(1H-tetrazol-5-yl)-benzylidene]-4,5-dihydro-thiazol-2-yl}-hydrazino)-phenyl]-acetic acid [Compound 34] |
| (+++) (+++ = >50% inhibition) | {3-[5-(1-Carbamoylmethyl-1H-indol-3-ylmethylene)-4-oxo-4,5-dihydro-thiazol-2-ylamino]-phenyl}-acetic acid [Compound 23] |
